According to patent US11572371B2, “BRD4 inhibitor” (HINOVA PHARMACEUTICALS INC., priority 2017, dated 2023):

How the values were obtained:
BRD2(1, 2) = BRD2(1, 2) (Homo sapiens (Human), UniProt P25440); test: AlphaScreen binding assay, BRD2 (D1+D2)
Method: (§1) Homogeneous time-resolved fluorescence (HTRF) was used to detect the binding of the compound to BRD4 (D1 +D2) and BRDT (D1) proteins, and the AlphaScreen method was used to detect the binding of the compound to BRD2 (D1+D2) and BRD3 (D1+D2) proteins.
(§2) Compounds were screened in vitro, and each concentration of the compound was diluted to 10 different concentrations. Four proteins, BRD4 (D1 +D2), BRDT (D1), BRD2 (D1+D2) and BRD3 (D1+D2), were selected to determine their IC50 values (see Table 1).
(§3) The test compound was dissolved in dimethylsulfoxide (DMSO) and stored at a concentration of 10 mM.
(§4) 6. AlphaScreen detection step:
(§5) 1) Preparing 1-fold concentration of detection buffer
(§6) 1-fold concentration of detection buffer was prepared (modified HEPES buffer).
(§7) 2) Gradient dilution of compounds
(§8) The compound was transferred to the detection plate with an Echo autosampler for gradient dilution, so that the final concentration of dimethyl sulfoxide was 0.1%.
(§9) 3) Preparation of protein solution
(§10) The protein was dissolved in a 1-fold concentration of detection buffer.
(§11) 4) Preparation of substrate solution
(§12) The peptide was dissolved in 1-fold concentration of detection buffer to prepare a substrate solution.
(§13) 5) 5 μL protein solution was transferred to the assay plate, and 5 μL 1-fold concentration of detection buffer was placed in the negative control well.
(§14) 6) The plate was incubated at room temperature for 15 minutes.
(§15) 7) 5 μL substrate solution was added to each well to start the reaction.
(§16) 8) The plate was incubated at room temperature for 60 minutes.
(§17) 9) Acceptor and donor solutions were prepared in 1-fold concentration of assay buffer.
(§18) 15 μL acceptor and donor solution were added, respectively, and the plate was incubated at room temperature for 60 minutes without light.
(§19) 10) The end point was read in EnSpire and Alpha mode.
(§20) 11) The curve was fitted.
(§21) The experimental data were entered into an Excel file, and the equation (1) was used to get the inhibitory rate. Inh %=(Max−Signal)/(Max−Min)*100 Equation (1)
(§22) The resultant data were entered into GraphPad software, and the IC50 value was obtained using equation (2). Y=Bottom+(Top−Bottom)/(1+10^((LogIC50−X)*Hill Slope)) Equation (2)
(§23) Wherein, Y-axis is the inhibition rate, while X-axis is the compound concentration.

BRD3(1, 2) = BRD3(1, 2) (Homo sapiens (Human), UniProt Q15059); test: AlphaScreen binding assay, BRD3 (D1+D2)
Sequence of BRD3(1, 2) (Q15059 29-417): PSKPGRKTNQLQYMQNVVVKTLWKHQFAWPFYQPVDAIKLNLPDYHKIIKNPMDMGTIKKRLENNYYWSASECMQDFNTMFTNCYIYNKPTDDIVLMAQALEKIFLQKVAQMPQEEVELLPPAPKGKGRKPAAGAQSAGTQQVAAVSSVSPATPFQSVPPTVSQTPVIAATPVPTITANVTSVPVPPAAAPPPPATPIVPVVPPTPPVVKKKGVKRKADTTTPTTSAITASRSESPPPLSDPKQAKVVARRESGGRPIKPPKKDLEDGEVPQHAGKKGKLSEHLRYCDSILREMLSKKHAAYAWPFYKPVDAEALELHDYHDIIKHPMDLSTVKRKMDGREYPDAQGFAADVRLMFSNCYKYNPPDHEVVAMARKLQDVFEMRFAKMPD
Method: as §1, §2, §3, §4, §5, §6, §7, §8, §9, §10, §11, §12, §13, §14, §15, §16, §17, §18, §19, §20, §21, §22, §23

BRDT(D1) = BRDT(D1) (Homo sapiens (Human), UniProt Q58F21); test: HTRF binding assay, BRDT (D1)
Method: as §1, §2
BRDT(D1)(Active Motif, Cat.No.31450)
as §3
5. Homogeneous Time-Resolved Fluorescence Detection Steps:
1) All compounds were gradiently diluted on Echo plate according to the arrangement of the test plate. The final concentration of DMSO was 0.1%.
2) Compounds or DMSO was transferred to a 384-well assay plate by using Echo autosampler.
3) 2× concentration of protein and peptide mixture was added to the assay plate.
4) 2× concentration of the mixed detection solution was added to the assay plate and shaken for 30 seconds.
5) The plate was incubated at room temperature for 2 hours.
6) The fluorescence signal was read on Envision microplate reader (with excitation light wavelength at 340 nm and emission light wavelength at 615 nm and 665 nm).
as §21, §22, §23

CWR22RV1 cells = test: Inhibition of CWR22RV1 cell proliferation (CCK-8); assay type: cell-based; conditions: Homo sapiens, CWR22Rv1, 144 h; cultured for 6 days, CCK-8; read-out: IC50 on CWR22RV1
Method: Test Example 2 Biological Determination of the Inhibitory Effect of the Compound on CWR22RV1 Cell Proliferation
Experimental Materials: • CWR22RV1 cell line (Cell bank of Chinese Academy of Sciences, TCHu100) • FBS (Gibco, Cat. No. 10099-141) • 0.01M PBS (Biosharp, Cat. No. 162262) • RIPM1640 (Hyclone, Cat. No. 308090.01) • Penicillin-Streptomycin (Hyclone, Cat. No. SV30010) • Cell counting kit-8(Signalway Antibody, Cat. No. CP002) • DMSO (Sigma, Cat. No. D5879) • Centrifuge Tube, 15 ml (Excell Bio, Cat. No. CS015-0001) • Cell Culture Dish, (Excell Bio, Cat. No. CS016-0128) • 96-well cell culture cluster (Corning, Cat. No. 3599)
(1) CWR22RV1 cells were subcultured with cell culture medium, and well-growth cells were inoculated in 96-well plates, with 80 μL per well. The number of cells in each well was 1500, and the plate was cultured overnight in a 37° C., 5% CO2 cell incubator.
(2) The drug was prepared as a 30 mM stock solution using dimethyl sulfoxide (DMSO). before use, the stock solution was diluted 3 times with DMSO, and then diluted by a 3 times gradient to obtain 9 concentration gradients. The compound at each concentration was further diluted 200 times with the culture solution (to ensure that the DMSO concentration in the culture system was 0.1%), and each concentration was repeated 2 wells. 20 μL of the diluted compound was added to the cell culture wells (with final concentrations of 10 μM, 3.3 μM, 1.1 μM . . . ), and gently shaked to mix. In addition, three negative control wells containing only cells and three blank control wells containing only culture medium (6 wells each containing 20 μL DMSO 200-fold diluted with culture medium) were set.
(1) After being cultured for 6 days, 10 μL CCK-8 was added to each well, and the cells were further cultured in a 5% CO2 cell incubator at 37° C. for 2.5 hours.
(2) The absorbance (OD value) was measured at 450 nm with a multifunctional microplate reader.
(3) The data were analyzed with the Dose-response-inhibition equation in the software GraphPad Prism6, and IC50 values were obtained.

BRD4(1, 2) = BRD4(1, 2) (Homo sapiens (Human), UniProt O60885); test: HTRF binding assay, BRD4 (D1+D2)
Source text: The experimental data were entered into an Excel file, and the equation (1) was used to get the inhibitory rate. Inh %=(Max−Signal)/(Max−Min)*100 Equation (1) […]

Sequence of BRD2(1, 2) (P25440 65-459): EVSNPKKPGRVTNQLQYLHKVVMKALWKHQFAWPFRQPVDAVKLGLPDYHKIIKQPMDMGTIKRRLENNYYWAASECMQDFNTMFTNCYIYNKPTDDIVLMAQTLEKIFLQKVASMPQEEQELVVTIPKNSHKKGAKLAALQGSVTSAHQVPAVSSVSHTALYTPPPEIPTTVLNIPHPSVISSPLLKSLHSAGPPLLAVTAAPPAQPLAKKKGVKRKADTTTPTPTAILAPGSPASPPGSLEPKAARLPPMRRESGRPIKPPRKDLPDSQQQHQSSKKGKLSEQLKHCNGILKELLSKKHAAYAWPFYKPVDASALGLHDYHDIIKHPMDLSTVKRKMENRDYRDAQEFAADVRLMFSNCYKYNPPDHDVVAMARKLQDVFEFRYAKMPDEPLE

| Compound | IC50 (BRD2(1, 2)) | IC50 (BRD3(1, 2)) | IC50 (BRDT(D1)) | IC50 (CWR22RV1 cells) | IC50 (BRD4(1, 2)) |
| --- | --- | --- | --- | --- | --- |
| Cc1sc2c(c1C)C(c1ccc(Cl)cc1)=N[C@@H](Cc1nnc(C(C)C)o1)c1nnc(C)n1-2 [Compound 19, (S)-2-((4-(4-chlorophenyl)-2,3,9-trimethyl-6H-thieno[3,2-f][1,2,4]triazolo[4,3-a][1,4]diaza-6-yl)methyl)-5-isopropyl-1,3,4-oxodiazole] | 8.3 nM | 17 nM | 51 nM | 28 nM |  |
| CCOCc1nnc(C[C@@H]2N=C(c3ccc(Cl)cc3)c3c(sc(C)c3C)-n3c(C)nnc32)o1 [Compound 6, (S)-2-((4-(4-chlorophenyl)-2,3,9-trimethyl-6H-thieno[3,2-f][1,2,4]triazolo[4,3-a][1,4]diaza-6-yl)methyl)-5-(ethoxylmethyl)-1,3,4-oxodiazole] | 15 nM | 20 nM | 46 nM | 61 nM |  |
| CCc1nnc(C[C@@H]2N=C(c3ccc(Cl)cc3)c3c(sc(C)c3C)-n3c(C)nnc32)o1 [Compound 22, (S)-2-((4-(4-chlorophenyl)-2,3,9-trimethyl-6H-thieno[3,2-f][1,2,4]triazolo[4,3-a][1,4]diaza-6-yl)methyl)-5-ethyl-1,3,4-oxodiazole] | 10.8 nM | 21 nM | 46 nM | 47 nM | 25 nM |
| Cc1sc2c(c1C)C(c1ccc(Cl)cc1)=N[C@@H](Cc1nnc(C3CC3)o1)c1nnc(C)n1-2 [Compound 20, (S)-2-((4-(4-chlorophenyl)-2,3,9-trimethyl-6H-thieno[3,2-f][1,2,4]triazolo[4,3-a][1,4]diaza-6-yl)methyl)-5-cyclopropyl-1,3,4-oxodiazole] | 10.1 nM | 20 nM | 49 nM | 37 nM |  |
